Measured values from paper PMC2375353, “Effective treatment of experimental U-87MG human glioblastoma in nude mice with a targeted cytotoxic bombesin analogue, AN-215” (British Journal of Cancer, 2002).

System: U-87MG human glioblastoma xenografted into nude mice
Test: Experiment 2: growth of s.c. U-87MG xenografts, with BN receptor blockade
Format: in vivo, human tumour in male athymic nude mice
Conditions: RC-3095 200 μg i.v. 15 min before AN-215 150 nmol kg^-1
Description: Human glioblastoma cell line U-87MG was obtained from American Type Culture Collection (Manassas, VA, USA) and cultured as described ([Pinski et al, 1994]). Male athymic (Ncr nu/nu) nude mice, approximately 6-weeks-old on arrival, were obtained from the National Cancer Institute (Frederick Cancer Research and Development Center, Frederick, MD, USA), and housed in laminar air-flow cabinets under pathogen-free conditions with a 12 h light/12 h dark schedule, and fed autoclaved standard chow and water ad libitum. Xenografts were initiated by s.c. injection of 12×10^6 U-87MG cells into the right flanks of five male nude mice. Tumours resulting after 2 weeks were aseptically dissected, mechanically minced, and 3-mm^3 pieces of tumour tissue were transplanted s.c. with a trocar needle. The take rate was 100%. All experiments were performed in accordance with institutional ethical guidelines of animal care and were essentially in agreement with [UKCCCR guidelines (1998)] for the welfare of animals in experimental neoplasia.
Experiment 2 was started when U-87MG tumours had grown to 70–84 mm^3 in volume. The animals were divided into the following treatment groups: group 1 (10 mice), control, vehicle solution; group 2 (10 mice), analogue AN-215; group 3 (five mice), unconjugated mixture of the cytotoxic radical AN-201 and BN antagonist RC-3095. All compounds were injected i.v. at 150 nmol kg^−1 of BW on days 1, 10, and 17. In addition, one group of tumour-bearing mice received an i.v. injection of 200 μg of BN antagonist RC-3095 15 min before each administration of AN-215 at a dose of 150 nmol kg^−1 of BW on days 1, 10 and 17 as in the case of group 2. The experiment was terminated on day 20 as described above.
Data are expressed as mean±s.e. Differences between mean values were evaluated by two-tailed Student's t-test, P<0.05 being considered significant.

## [D-Tpi^6,Leu^13ψ(CH2NH)Leu^14]BN (6-14) [RC-3095, reference compound]
  Antitumour effect after BN receptor blockade: attenuated the antitumour effect of the cytotoxic BN analogue AN-215
